Laboratory results: patent publication US7696238B2, “Substituted benzo[d]isoxazol-3-yl amine compounds as analgesics” (Gruenenthal GmbH, priority 2005, dated 2010)

Experiments:
[1] = target: T1, hKCNQ2/3 (stably transfected hKCNQ2/3 CHO-K1 cell line) (Homo sapiens, UniProt O43525+O43526); assay: Voltage clamp (patch-clamp) measurements, current increase relative to retigabin; assay type: cell-based; details: test substance 10 μM at −40 mV; current increase standardized to retigabin (10 μM) effect
T1 construct: expressed in transfected cells; host or cells: CHO-K1
Procedure: II. Voltage Clamp Measurements
In order to confirm electrophysiologically a KCNQ2/3 agonistic action of the substances, patch-clamp measurements [see Hamill O P, Marty A, Neher E, Sakmann B, Sigworth F J: “Improved patch-clamp techniques for high-resolution current recording from cells and cell-free membrane patches”, Pflugers Arch. 1981 August; 391(2):85-100] were carried out in the voltage clamp mode on a stably transfected hKCNQ2/3 CHO-K1 cell line. After formation of the gigaseal the cells were first of all clamped at a holding potential of −60 mV. Depolarising voltage jumps were then applied up to a potential of +20 mV (increment: 20 mV, duration: 1 second), in order to confirm the functional expression of KCNQ2/3 typical currents. The substances were tested at a potential of −40 mV. The current increase induced by retigabin (10 μM) was first of all recorded on each cell at −40 mV as positive control. After completely washing out the retigabin effect (duration: 80 sec) the test substance (10 μM) was applied. The current increase induced by the test substance was standardized to the retigabin effect and stated as relative efficacy (see below).

[2] = target: T2, KCNQ2/3 ion channel (KCNQ2/3-expressing CHO-K1 cells) (Homo sapiens, UniProt O43525+O43526); assay: Fluorescence assay (FLIPR instrument, membrane potential dye) for substances acting agonistically on the KCNQ2/3 ion channel; assay type: cell-based; details: difference between maximum and minimum values, agonistic action detected from a value of −40 (and below)
T2 construct: expressed in transfected cells; host or cells: CHO-K1
Procedure: Pharmacological Test Methods I. Fluorescence Assay (FLIPR™ Instrument) for the Identification of Substances Acting Agonistically on the KCNQ2/3 Ion Channel
On the day before the experiment, KCNQ2/3-expressing CHO-K1 cells and CHO-K1 empty strain cells were seeded out onto coated poly-D-lysine black/clear plates (Falcon/BD Company; Order No.: 356640) in a concentration of 20000 cells/100 μl MEM alpha, 50 ml FCS, 5.5 ml PIS/G/solution (100×) and then incubated for 20-24 hours in an incubator (37° C., 5% CO2). On the day of the experiment the HBSS/hepes working solution and the FMP/HBSS/hepes mixture (Membrane Potential Assay Kit Red (FMP), bulk format Cat. No. R8123) were initially prepared according to the following protocol:
• 1000 ml 1× HBSS buffer (Hank's Balanced Salt Solution (1×) (Gibco; No. 14025)+10 ml hepes (1M stock solution, pH 7.4; hepes Na salt (Sigma Company; No. H7006-500 g; storage at 4° C. in a refrigerator) 2. 1× FMP/HBSS/hepes working solution: • 6 ml HBSS/hepes buffer are added to 5 ml of the FMP solution stored at −20° C. (preparation see below; thawing out at room temperature). The test substances (2 mM batch solution in 100% DMSO) contained in drug plates (Costar 96-well plates, catalogue No. 3795) were then diluted by adding HBSS/hepes buffer to a concentration of 30 μM (3× concentrated). The assay plates on which the cells grow were washed once with 200 μl HBSS/hepes (Cellwash Washer, Labsystems Company, catalogue No. 5161550) and the remaining volume was removed by tapping out the inverted plate twice. 100 μl of the FMP/HBSS/hepes working solution were then added in each case to the cell plates and incubated for 1 hour in the CO2 incubator at 37° C. and 5% CO2. The measurements are then carried out with a FLIPR III instrument from the Molecular Devices company (96-format, using the 540-590 nm band-pass filter in the #2 localization). In the experimental setup of the FLIPR software, filter #2 should be selected. The cell plates and the substance plates were fed alternately into the input stack. A signal test was carried out in each case with the cell plates before adding the substance. The test substances were then added via the pipetting unit of the FLIPR (added volume 50 μl, 3× concentrated, end concentration 10 μM) to the cavities of the cell plates in a total volume of 150 μl/well. The threshold data of the FLIPR program were as follows:
The pipette tips were washed after each pipetting procedure 3 times with 1% DMSO in water. The times of the measurement intervals after addition of the test substances are as follows:
Total measurement time: 6 min/plate
The test samples were evaluated by calculating the difference between the maximum and minimum values. EC50/IC50 values are calculated using the Graph Pad Prism software.
Preparation of the membrane potential loading buffer (membrane potential assay kit red (FMP), bulk format cat. No. R8123) according to the manufacturer's instructions:
10 ml of the 10× assay buffer (component B) were diluted with 90 ml of sterile water and then adjusted to pH 7.4 with 1.0N NaOH (1× assay buffer). One vessel with the FLIPR membrane potential assay component A was completely dissolved in 100 ml 1× assay buffer and thoroughly mixed for 10 minutes with a magnetic stirrer. 5 ml aliquots were then stored at −20° C. (storage shelf life ca. 2 weeks).
An agonistic action can be detected starting from a value of −40 (and below).

| Structure (SMILES) | Voltage clamp: relative efficacy with respect to retigabin [10 μM] [1] | FLIPR membrane potential fluorescence change (ΔF %, max minus min); negative values indicate KCNQ2/3 agonism [2] [%] |
| --- | --- | --- |
| FC(F)(F)Sc1ccc(CNc2noc3ccc(Br)cc23)cc1 [Example 176, (5-bromobenzo[d]isoxazol-3-yl)-(4-trifluoromethyl-sulfanyl-benzyl)-amine] | 0.62 | – |
| Fc1ccc2onc(NCc3ccc(SC(F)(F)F)cc3)c2c1 [Example 162, (5-fluorobenzo[d]isoxazol-3-yl)-(4-trifluoromethyl-sulfanylbenzyl)-amine] | 0.79 | – |
| Cc1cc(C)cc(CNc2noc3cccc(N)c23)c1 [Example 174, N3-(3,5-dimethylbenzyl)-benzo[d]isoxazole-3,4-diamine] | 0.8 | −45.5 |
| FC(F)(F)c1ccc(CNc2noc3ccccc23)cc1 [Example 152, benzo[d]isoxazol-3-yl-(4-trifluoromethylbenzyl)-amine] | 0.22 | −49 |
| CC(Nc1noc2ccccc12)c1ccc(C(F)(F)F)cc1 (centres unmarked) [Example 1, Benzo[d]isoxazol-3-yl-[1-(4-trifluoro-methylphenyl)-ethyl]-amine] | 0.42 | – |
| CCCCc1ccc(CNc2noc3cc(Cl)ccc23)cc1 [Example 161, (4-butylbenzyl)-(6-chloro-benzo[d]isoxazol-3-yl)-amine] | 0.61 | −40 |
| COc1ccc(CNc2noc3cc(F)ccc23)cc1Br [Example 168, (3-bromo-4-methoxy-benzyl)-(6-fluorobenzo[d]-isoxazol-3-yl)-amine] | 0.35 | – |
| FC(F)(F)Sc1ccc(CNc2noc3ccccc23)cc1 [Example 160, benzo[d]isoxazol-3-yl-(4-trifluoromethylsulfanyl-benzyl)-amine] | 0.45 | −58 |
| N#Cc1cccc(NC(=S)Nc2noc3cc(F)ccc23)c1 [Example 112, 1-(3-cyanophenyl)-3-(6-fluoro-benzo[d]isoxazol-3-yl)-thiourea] | 0.3 | – |
| Fc1ccc2onc(NCc3ccc(OC(F)(F)F)cc3)c2c1 [Example 159, (5-fluorobenzo[d]isoxazol-3-yl)-(4-trifluoromethoxy-benzyl)-amine] | 0.42 | −41 |
| Fc1ccc2c(NCc3cccc(OCc4ccccc4)c3)noc2c1 [Example 173, (3-benzyloxybenzyl)-(6-fluorobenzo[d]isoxazol-3-yl)-amine] | 0.84 | −55 |
| S=C(Nc1noc2cc(Cl)ccc12)NC1CCCC1 [Example 103, 1-(6-chlorobenzo[d]isoxazol-3-yl)-3-cyclopentyl-thiourea] | – | −58 |
| CCCCc1ccc(CNc2noc3cc(F)ccc23)cc1 [Example 171, (4-butylbenzyl)-(6-fluorobenzo[d]isoxazol-3-yl)-amine] | 0.68 | −53 |
| CC(Nc1noc2ccccc12)c1ccc(SC(F)(F)F)cc1 (centres unmarked) [Example 2, Benzo[d]isoxazol-3-yl-[1-(4-trifluoromethyl-sulfanylphenyl)-ethyl]-amine] | 0.37 | – |
| COC(=O)CNC(=S)Nc1noc2ccc(C)cc12 [Example 94, [3-(5-methylbenzo[d]isoxazol-3-yl)-thioureido]-acetic acid methyl ester] | – | −47 |
| CCCCc1ccc(CNc2noc3cccc(N)c23)cc1 [Example 175, N3-(4-butylbenzyl)-benzo[d]isoxazole-3,4-diamine] | 0.59 | −57.7 |
| CCOc1ccc(NC(=S)Nc2noc3ccccc23)cc1 [Example 31, 1-benzo[d]isoxazol-3-yl-3-(4-ethoxyphenyl)-thiourea] | – | −49 |
| COc1ccccc1NC(=S)Nc1noc2cccc(OC)c12 [Example 130, 1-(4-methoxybenzo[d]isoxazol-3-yl)-3-(2-methoxyphenyl)-thiourea] | 0.2 | – |
| COC(=O)C(C)NC(=S)Nc1noc2ccc(F)cc12 (centres unmarked) [Example 97, 2-[3-(5-fluorobenzo(d]isoxazol-3-yl)-thioureido]-propionic acid methyl ester] | – | −58.5 |
| COc1cccc2onc(NC(=S)NC(C)c3ccccc3)c12 (centres unmarked) [Example 128, 1-(4-methoxybenzo[d]isoxazol-3-yl)-3-(1-phenylethyl)-thiourea] | – | −47 |
| C=CCNC(=S)Nc1noc2ccc(C)cc12 [Example 93, 1-allyl-3-(5-methylbenzo[d]isoxazol-3-yl)-thiourea] | – | −45.5 |
| CN(C)c1cccc2onc(NC(=S)Nc3cccc(Cl)c3)c12 [Example 56, 1-(3-chlorophenyl)-3-(4-dimethylaminobenzo[d]isoxazol-3-yl)-thiourea] | – | −55 |
| Cc1ccccc1NC(=S)Nc1noc2cccc(Cl)c12 [Example 51, 1-(4-chlorobenzo[d]isoxazol-3-yl)-3-o-tolyl-thiourea] | – | −50 |
| Cc1cc(CNc2noc3cc(F)ccc23)cc(C)c1OCc1ccccc1 [Example 170, (4-benzyloxy-3,5-dimethyl-benzyl)-(6-fluorobenzo[d]isoxazol-3-yl)-amine] | 0.72 | – |
| FC(F)(F)Oc1ccc(CNc2noc3ccccc23)cc1 [Example 158, benzo[d]isoxazol-3-yl-(4-trifluoromethoxybenzyl)-amine] | – | −53 |
| S=C(NCc1ccccc1)Nc1noc2cccc(Cl)c12 [Example 52, 1-benzyl-3-(4-chloro-benzo[d]isoxazol-3-yl)-thiourea] | – | −67.5 |
| Fc1c(Cl)cccc1CNc1noc2cccc(Cl)c12 [Example 200, (4-chlorobenzo[d]isoxazol-3-yl)-(3-chloro-2-fluoro-benzyl)-amine] | – | −74 |
